Results taken from the NIST ThermoML archive (doi:10.1016/j.jct.2007.11.001).
± gives the expanded uncertainty stated by the source.

Experiment: molar heat capacity at constant pressure
Conditions: 101.33 kPa, Small (less than 1 g) adiabatic calorimetry

SMILES: O=P([O-])([O-])[O-].[Cs+].[Mg+2] [caesium-magnesium monophosphate]
- molar heat capacity at constant pressure (169.34 K, Crystal 2): 93.7 ± 0.42 J/K/mol
- molar heat capacity at constant pressure (172.31 K, Crystal 2): 94.79 ± 0.42 J/K/mol
- molar heat capacity at constant pressure (175.74 K, Crystal 2): 96.03 ± 0.5 J/K/mol
- molar heat capacity at constant pressure (178.73 K, Crystal 2): 97.11 ± 0.5 J/K/mol
- molar heat capacity at constant pressure (182.05 K, Crystal 2): 98.28 ± 0.5 J/K/mol
- molar heat capacity at constant pressure (185.19 K, Crystal 2): 99.36 ± 0.5 J/K/mol
- molar heat capacity at constant pressure (188.17 K, Crystal 2): 100.4 ± 0.5 J/K/mol
- molar heat capacity at constant pressure (191.4 K, Crystal 2): 101.5 ± 0.5 J/K/mol
- molar heat capacity at constant pressure (194.3 K, Crystal 2): 102.6 ± 0.5 J/K/mol
- molar heat capacity at constant pressure (197.16 K, Crystal 2): 103.5 ± 0.5 J/K/mol
- molar heat capacity at constant pressure (199.5 K, Crystal 2): 104.3 ± 0.5 J/K/mol
- molar heat capacity at constant pressure (200.16 K, Crystal 2): 104.6 ± 0.5 J/K/mol
- molar heat capacity at constant pressure (202.4 K, Crystal 2): 105.3 ± 0.5 J/K/mol
- molar heat capacity at constant pressure (202.86 K, Crystal 2): 105.5 ± 0.5 J/K/mol
- molar heat capacity at constant pressure (205.51 K, Crystal 2): 106.3 ± 0.5 J/K/mol
- molar heat capacity at constant pressure (205.98 K, Crystal 2): 106.6 ± 0.5 J/K/mol
- molar heat capacity at constant pressure (208.48 K, Crystal 2): 107.5 ± 0.5 J/K/mol
- molar heat capacity at constant pressure (208.94 K, Crystal 2): 107.8 ± 0.5 J/K/mol
- molar heat capacity at constant pressure (211.44 K, Crystal 2): 108.6 ± 0.5 J/K/mol
- molar heat capacity at constant pressure (211.9 K, Crystal 2): 108.9 ± 0.5 J/K/mol
- molar heat capacity at constant pressure (214.13 K, Crystal 2): 109.6 ± 0.5 J/K/mol
- molar heat capacity at constant pressure (214.59 K, Crystal 2): 109.9 ± 0.5 J/K/mol
- molar heat capacity at constant pressure (217.18 K, Crystal 2): 110.9 ± 0.5 J/K/mol
- molar heat capacity at constant pressure (217.64 K, Crystal 2): 111.2 ± 0.5 J/K/mol
- molar heat capacity at constant pressure (220.64 K, Crystal 2): 112.7 ± 0.5 J/K/mol
- molar heat capacity at constant pressure (221.1 K, Crystal 2): 113 ± 0.5 J/K/mol
- molar heat capacity at constant pressure (223.65 K, Crystal 2): 114.4 ± 0.5 J/K/mol
- molar heat capacity at constant pressure (224.11 K, Crystal 2): 114.9 ± 0.5 J/K/mol
- molar heat capacity at constant pressure (226.53 K, Crystal 2): 116.3 ± 0.5 J/K/mol
- molar heat capacity at constant pressure (226.99 K, Crystal 2): 116.9 ± 0.5 J/K/mol
- molar heat capacity at constant pressure (232.4 K, Crystal 2): 122.6 ± 0.58 J/K/mol
- molar heat capacity at constant pressure (232.75 K, Crystal 2): 123.1 ± 0.58 J/K/mol
- molar heat capacity at constant pressure (235.69 K, Crystal 1): 133.5 ± 0.58 J/K/mol
- molar heat capacity at constant pressure (235.69 K, Crystal 2): 129.2 ± 0.58 J/K/mol
- molar heat capacity at constant pressure (235.7 K, Crystal 1): 129.1 ± 0.58 J/K/mol
- molar heat capacity at constant pressure (237.89 K, Crystal 1): 126.1 ± 0.58 J/K/mol
- molar heat capacity at constant pressure (238.55 K, Crystal 1): 124.9 ± 0.58 J/K/mol
- molar heat capacity at constant pressure (240.77 K, Crystal 1): 121.7 ± 0.58 J/K/mol
- molar heat capacity at constant pressure (241.43 K, Crystal 1): 120.9 ± 0.58 J/K/mol
- molar heat capacity at constant pressure (243.77 K, Crystal 1): 118.8 ± 0.5 J/K/mol
- molar heat capacity at constant pressure (244.43 K, Crystal 1): 118.3 ± 0.5 J/K/mol
- molar heat capacity at constant pressure (246.72 K, Crystal 1): 116.9 ± 0.5 J/K/mol
- molar heat capacity at constant pressure (247.38 K, Crystal 1): 116.7 ± 0.5 J/K/mol
- molar heat capacity at constant pressure (249.24 K, Crystal 1): 115.8 ± 0.5 J/K/mol
- molar heat capacity at constant pressure (249.9 K, Crystal 1): 115.7 ± 0.5 J/K/mol
- molar heat capacity at constant pressure (250 K, Crystal 1): 112.2 ± 0.5 J/K/mol
- molar heat capacity at constant pressure (252.35 K, Crystal 1): 115.1 ± 0.5 J/K/mol
- molar heat capacity at constant pressure (253.01 K, Crystal 1): 114.9 ± 0.5 J/K/mol
- molar heat capacity at constant pressure (255.27 K, Crystal 1): 114.7 ± 0.5 J/K/mol
- molar heat capacity at constant pressure (255.8 K, Crystal 1): 114.7 ± 0.5 J/K/mol
- molar heat capacity at constant pressure (257.91 K, Crystal 1): 114.8 ± 0.5 J/K/mol
- molar heat capacity at constant pressure (258.57 K, Crystal 1): 114.8 ± 0.5 J/K/mol
- molar heat capacity at constant pressure (260 K, Crystal 1): 114.2 ± 0.5 J/K/mol
- molar heat capacity at constant pressure (260.67 K, Crystal 1): 115 ± 0.5 J/K/mol
- molar heat capacity at constant pressure (261.33 K, Crystal 1): 115.1 ± 0.5 J/K/mol
- molar heat capacity at constant pressure (263.41 K, Crystal 1): 115.3 ± 0.5 J/K/mol
- molar heat capacity at constant pressure (264.07 K, Crystal 1): 115.4 ± 0.5 J/K/mol
- molar heat capacity at constant pressure (266.23 K, Crystal 1): 115.7 ± 0.5 J/K/mol
- molar heat capacity at constant pressure (266.89 K, Crystal 1): 115.8 ± 0.5 J/K/mol
- molar heat capacity at constant pressure (268.97 K, Crystal 1): 116.1 ± 0.5 J/K/mol
- molar heat capacity at constant pressure (269.63 K, Crystal 1): 116.2 ± 0.5 J/K/mol
- molar heat capacity at constant pressure (270 K, Crystal 1): 116.3 ± 0.5 J/K/mol
- molar heat capacity at constant pressure (271.52 K, Crystal 1): 116.5 ± 0.5 J/K/mol
- molar heat capacity at constant pressure (272.18 K, Crystal 1): 116.7 ± 0.5 J/K/mol
- molar heat capacity at constant pressure (274.19 K, Crystal 1): 117.1 ± 0.5 J/K/mol
- molar heat capacity at constant pressure (274.85 K, Crystal 1): 117.2 ± 0.5 J/K/mol
- molar heat capacity at constant pressure (276.83 K, Crystal 1): 117.7 ± 0.5 J/K/mol
- molar heat capacity at constant pressure (277.49 K, Crystal 1): 117.8 ± 0.5 J/K/mol
- molar heat capacity at constant pressure (280 K, Crystal 1): 118.3 ± 0.5 J/K/mol
- molar heat capacity at constant pressure (280.12 K, Crystal 1): 118.3 ± 0.5 J/K/mol
- molar heat capacity at constant pressure (282.5 K, Crystal 1): 118.8 ± 0.5 J/K/mol
- molar heat capacity at constant pressure (285.44 K, Crystal 1): 119.4 ± 0.5 J/K/mol
- molar heat capacity at constant pressure (287.8 K, Crystal 1): 119.8 ± 0.5 J/K/mol
- molar heat capacity at constant pressure (289.7 K, Crystal 1): 120.3 ± 0.5 J/K/mol
- molar heat capacity at constant pressure (290 K, Crystal 1): 120.3 ± 0.5 J/K/mol
